Test results reported in US20120302569A1, “PHENYL-THIAZOLYL INHIBITORS OF PRO-MATRIX METALLOPROTEINASE ACTIVATION” (priority 2011, published 2012).
Structures can show the parent of a compound that is named as a salt.

Assays:
[1] = target: T1, proMMP9(20-445;ΔFnII) (SEQ ID NO:6) (Homo sapiens, UniProt P14780, DEL216-390); experiment: ThermoFluor with proMMP9(20-445;ΔFnII); conditions: read-out: proMMP9(20-445; ΔFnII) (SEQ ID NO: 6) binding
T1 construct: start methionine (N); made in house; host or cells: E. coli BL21(DE3) RIL
T1 sequence (P14780 with tags, fused parts or gaps DEL216-390): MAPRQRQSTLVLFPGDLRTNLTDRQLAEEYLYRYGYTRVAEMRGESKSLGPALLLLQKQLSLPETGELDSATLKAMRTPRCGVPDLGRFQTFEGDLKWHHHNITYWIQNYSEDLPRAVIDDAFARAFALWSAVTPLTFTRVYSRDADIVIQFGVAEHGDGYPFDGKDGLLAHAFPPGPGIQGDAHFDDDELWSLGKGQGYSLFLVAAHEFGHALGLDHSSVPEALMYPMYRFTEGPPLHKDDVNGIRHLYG
Summary of the method: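 Thermal shift of 2.8 μM desalted proMMP9(20-445;ΔFnII) with 50 μM 1,8-ANS in 50 mM HEPES pH 7.0, NaCl, Tween-20, MgCl2, CaCl2; heated 40-90 °C at 1 °C/min, emission 500 nm. Tm from fitted curves; binding fit using DSC/ThermoFluor-derived unfolding parameters for 11-point compound dilutions.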

[2] = target: T2, proMMP9(67-444;ΔFnII) (SEQ ID NO:5) (Homo sapiens, UniProt P14780, DEL216-390); experiment: ThermoFluor with proMMP9(67-444;ΔFnII); conditions: read-out: proMMP9(67-444; ΔFnII) (SEQ ID NO: 5) binding
T2 construct: start methionine (N); made in house; host or cells: E. coli BL21(DE3) RIL
T2 sequence (P14780 with tags, fused parts or gaps DEL216-390): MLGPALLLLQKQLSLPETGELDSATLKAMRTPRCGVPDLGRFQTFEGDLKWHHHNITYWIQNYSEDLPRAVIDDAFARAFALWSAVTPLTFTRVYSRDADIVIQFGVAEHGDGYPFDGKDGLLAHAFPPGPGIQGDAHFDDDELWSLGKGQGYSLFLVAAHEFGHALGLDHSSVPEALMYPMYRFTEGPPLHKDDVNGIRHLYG
Summary of the method: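 Thermal shift with 3.5 μM protein and 50 μM 1,8-ANS in 50 mM HEPES pH 7.0, 100 mM NaCl, 0.001% Tween-20, 2.5 mM MgCl2, 300 μM CaCl2, heated 40–90 °C at 1 °C/min. Fluorescence (500±25 nm) fit to yield Tm; binding fitted using DSC/ThermoFluor-derived thermodynamic parameters, compounds dosed as serial dilutions.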

[3] = target: T3, proMMP13(1-268) (SEQ ID NO:7) (Homo sapiens, UniProt P45452); experiment: ProMMP13/Plasmin P126 Activation Assay; assay type: biochemical; conditions: proMMP13(1-268) activated by plasmin
T3 construct: 6×-histidine tag (C); made in house; host or cells: HEK293 (transient transfection, secreted)
Experimental: ProMMP13/Plasmin P126 Activation Assay
On the day of assay, proMMP13(1-268) (SEQ ID NO:7) purified from HEK293 cells and plasmin were diluted to 160 nM and 320 nM, respectively, in assay buffer. The reaction volume was 50 μL. […] The plate was sealed and incubated for 40 min at 37° C. […] Plasmin was not reactive towards P-126 substrate under these conditions.

[4] = target: T4, full-length proMMP9(1-707) (SEQ ID NO:1) (Homo sapiens, UniProt P14780, R574P); experiment: proMMP9/MMP3 P126 Activation Assay; assay type: biochemical; conditions: proMMP9(1-707) from HEK293 cells activated by catalytic MMP3
T4 construct: made in house; host or cells: HEK293 (proMMP9, secreted); E. coli (MMP3)
Experimental: proMMP9/MMP3 P126 Activation Assay
The reaction volume was 50 μL. […] Reactivity of residual MMP3 towards P-126 substrate was minimal under these conditions.

T4 sequence (P14780 20-707 R574P): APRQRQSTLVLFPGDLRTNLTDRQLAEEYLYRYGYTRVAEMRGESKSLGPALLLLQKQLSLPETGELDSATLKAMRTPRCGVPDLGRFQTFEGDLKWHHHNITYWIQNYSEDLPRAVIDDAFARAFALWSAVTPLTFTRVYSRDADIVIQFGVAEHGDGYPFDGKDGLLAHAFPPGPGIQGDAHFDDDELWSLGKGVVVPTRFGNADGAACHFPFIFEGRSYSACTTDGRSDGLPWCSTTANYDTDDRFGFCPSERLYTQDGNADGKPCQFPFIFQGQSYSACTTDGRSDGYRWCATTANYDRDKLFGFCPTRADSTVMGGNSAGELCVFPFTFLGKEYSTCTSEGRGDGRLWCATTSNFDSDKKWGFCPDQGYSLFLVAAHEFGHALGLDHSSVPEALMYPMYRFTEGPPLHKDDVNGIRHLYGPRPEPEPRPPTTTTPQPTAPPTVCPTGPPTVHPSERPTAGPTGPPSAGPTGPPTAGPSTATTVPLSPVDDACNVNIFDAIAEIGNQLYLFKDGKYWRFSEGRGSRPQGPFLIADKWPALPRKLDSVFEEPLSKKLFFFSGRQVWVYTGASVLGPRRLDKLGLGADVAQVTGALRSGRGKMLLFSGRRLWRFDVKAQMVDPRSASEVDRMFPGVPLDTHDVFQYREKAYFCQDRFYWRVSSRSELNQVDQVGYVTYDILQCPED

SMILES	Kd [1]	Kd [2]	IC50 [3]	IC50 [4]
CC(C)Oc1ccc(S(N)(=O)=O)cc1Nc1nc(-c2ccc(CN3CC[C@@H](F)C3)cc2)cs1 [Example 53, (R)-3-((4-(4-((3-fluoropyrrolidin-1-yl)methyl)phenyl)thiazol-2-yl)amino)-4-isopropoxybenzenesulfonamide.TFA]	58 nM	95 nM	930 nM	59 nM
CC(C)Oc1ccc(C(N)=O)cc1Nc1nc(-c2ccc(OCCCN3CCOCC3)cc2)cs1 [Example 46, 4-isopropoxy-3-((4-(4-(3-morpholinopropoxy)phenyl)thiazol-2-yl)amino)benzamide.TFA]	20 nM	99 nM	340 nM	62 nM
COc1ccc(F)cc1Nc1nc(-c2ccc(OCCN3CCN(C)CC3)cc2)cs1 [Example 69, N-(5-fluoro-2-methoxyphenyl)-4-(4-(2-(4-methylpiperazin-1-yl)ethoxy)phenyl)thiazol-2-amine.TFA]	1500 nM	360 nM	4300 nM	90 nM
CC(C)Oc1ccc(C(N)=O)cc1Nc1nc(-c2ccc(OCCN3CCN(C)CC3)cc2)cs1 [Example 42, 4-isopropoxy-3-((4-(4-(2-(4-methylpiperazin-1-yl)ethoxy)phenyl)thiazol-2-yl)amino)benzamide.TFA]	16 nM	78 nM	270 nM	27 nM
CCOc1ccncc1Nc1nc(-c2ccc(OCCN3CCN(C)CC3)cc2)cs1 [Example 43, N-(4-ethoxypyridin-3-yl)-4-(4-(2-(4-methylpiperazin-1-yl)ethoxy)phenyl)thiazol-2-amine.TFA]	550 nM	89 nM	2900 nM	70 nM
CC(C)Oc1ccc(S(N)(=O)=O)cc1Nc1nc(-c2ccc(OCCN3CCN(C4CC4)CC3)cc2)cs1 [Example 45, 3-((4-(4-(2-(4-cyclopropylpiperazin-1-yl)ethoxy)phenyl)thiazol-2-yl)amino)-4-isopropoxybenzenesulfonamide.TFA]	29 nM	56 nM	950 nM	41 nM
CC(C)Oc1ccc(C(N)=O)cc1Nc1nc(-c2ccc(N3CCNCC3)cc2)cs1 [Example 7, 4-Isopropoxy-3-((4-(4-(piperazin-1-yl)phenyl)thiazol-2-yl)amino)benzamide.TFA]	13 nM	21 nM	77 nM	28 nM
CCN1CC=C(c2ccc(-c3csc(Nc4cc(C(N)=O)ccc4OC(C)C)n3)cc2)CC1 [Example 18, 3-((4-(4-(1-Ethyl-1,2,3,6-tetrahydropyridin-4-yl)phenyl)thiazol-2-yl)amino)-4-isopropoxybenzamide.TFA]	17 nM	51 nM	32 nM	25 nM
CC(C)Oc1ccc(C(N)=O)cc1Nc1nc(-c2ccc(OCCN3CCN(C4CC4)CC3)cc2)cs1 [Example 44, 3-((4-(4-(2-(4-cyclopropylpiperazin-1-yl)ethoxy)phenyl)thiazol-2-yl)amino)-4-isopropoxybenzamide.TFA]	24 nM	110 nM	520 nM	43 nM
CC(C)Oc1ccc(S(N)(=O)=O)cc1Nc1nc(-c2ccc(OCCCN3CCOCC3)cc2)cs1 [Example 47, 4-isopropoxy-3-((4-(4-(3-morpholinopropoxy)phenyl)thiazol-2-yl)amino)benzenesulfonamide.TFA]	32 nM	77 nM	600 nM	76 nM
CC(C)Oc1ccc(C(N)=O)cc1Nc1nc(-c2ccc(C3=CCN(C)CC3)cc2)cs1 [Example 17, 4-Isopropoxy-3-((4-(4-(1-methyl-1,2,3,6-tetrahydropyridin-4-yl)phenyl)thiazol-2-yl)amino)benzamide.TFA]	11 nM	24 nM	91 nM	26 nM
CC(C)Oc1ccc(C(N)=O)cc1Nc1nc(-c2ccc(CN3CCN(C4CC4)CC3)cc2)cs1 [Example 50, 3-((4-(4-((4-cyclopropylpiperazin-1-yl)methyl)phenyl)thiazol-2-yl)amino)-4-isopropoxybenzamide.TFA]	22 nM	100 nM	680 nM	49 nM
CC(C)Oc1ccc(S(N)(=O)=O)cc1Nc1nc(-c2ccc(N3CCNCC3)cc2)cs1 [Example 1, 4-Isopropoxy-3-((4-(4-(piperazin-1-yl)phenyl)thiazol-2-yl)amino)benzenesulfonamide.TFA]	15 nM	6 nM	230 nM	20 nM
CC(C)Oc1ccc(S(N)(=O)=O)cc1Nc1nc(-c2ccc(N3CCN(C)CC3)cc2)cs1 [Example 3, 4-Isopropoxy-3-((4-(4-(4-methylpiperazin-1-yl)phenyl)thiazol-2-yl)amino)benzenesulfonamide.HCl]	88 nM	88 nM	390 nM	74 nM
CC(C)Oc1ccc(C(N)=O)cc1Nc1nc(-c2ccc(CN3CCN(C(C)C)CC3)cc2)cs1 [Example 56, 4-isopropoxy-3-((4-(4-((4-isopropylpiperazin-1-yl)methyl)phenyl)thiazol-2-yl)amino)benzamide.TFA]	18 nM	80 nM	420 nM	100 nM
CCOc1ccncc1Nc1nc(-c2ccc(C3=CCN(C(C)C)CC3)cc2)cs1 [Example 23, N-(4-Ethoxypyridin-3-yl)-4-(4-(1-isopropyl-1,2,3,6-tetrahydropyridin-4-yl)phenyl)thiazol-2-amine.TFA]	510 nM	35 nM	850 nM	60 nM
CC(C)Oc1ccc(S(N)(=O)=O)cc1Nc1nc(-c2ccc(CN3CCN(C)CC3)cc2)cs1 [Example 49, 4-isopropoxy-3-((4-(4-((4-methylpiperazin-1-yl)methyl)phenyl)thiazol-2-yl)amino)benzenesulfonamide.TFA]	26 nM	40 nM	3400 nM	180 nM
CC(C)Oc1ccc(S(N)(=O)=O)cc1Nc1nc(-c2ccc(N3CCNCC3)c(Br)c2)cs1 [Example 2, 3-((4-(3-Bromo-4-(piperazin-1-yl)phenyl)thiazol-2-yl)amino)-4-isopropoxybenzenesulfonamide.TFA]	17 nM	15 nM	560 nM	67 nM
CC(C)Oc1ccc(C(N)=O)cc1Nc1nc(-c2ccc(N3CCN(C(C)C)CC3)cc2)cs1 [Example 10, 4-Isopropoxy-3-((4-(4-(4-isopropylpiperazin-1-yl)phenyl)thiazol-2-yl)amino)benzamide.HCl]	17 nM	33 nM	120 nM	50 nM
CC(C)Oc1ccc(S(N)(=O)=O)cc1Nc1nc(-c2ccc(C3=CCNCC3)cc2)cs1 [Example 12, 4-Isopropoxy-3-((4-(4-(1,2,3,6-tetrahydropyridin-4-yl)phenyl)thiazol-2-yl)amino)benzenesulfonamide.TFA]	18 nM	12 nM	340 nM	66 nM
CC(C)Oc1ccc(C(N)=O)cc1Nc1nc(-c2ccc(CN3CCN(C)CC3)cc2)cs1 [Example 48, 4-isopropoxy-3-((4-(4-((4-methylpiperazin-1-yl)methyl)phenyl)thiazol-2-yl)amino)benzamide.TFA]	20 nM	99 nM	850 nM	110 nM
